In patent EP0388528B1, “Carboximidamide derivatives” (KIRIN BEER KABUSHIKI KAISHA, priority 1988, dated 1990) one finds IC50 data, which are given here for 49 molecules.

For this assay, the system named is isolated rat aortae. The assay can be described thus: Vasorelaxing effect on the isolated rat aortae (Referential Example 1)-1). The note with it: inhibition of contraction induced by 40 mM KCl. The procedure:
The compounds of the present invention were tested for their physiological activities by measuring the tension of isolated rat aortae isometrically.
Thoracic aortae obtained from male Wistar rats (weighing 250-350 g) were cut into ring segments about 3 mm long. The ring preparation was placed in an organ bath filled with 10 ml of Krebs-Ringer solution that was maintained at 37°C and gassed with 95% O₂ - 5% CO₂.
The preparation in the organ bath was allowed to equilibrate under resting tension of 1 g. After equilibration period, the solution in the organ bath was replaced with an isotonic solution containing 40 mM KCl to contract the preparation.
After the contraction induced by KCl had reached plateau, the concentration-response relationship for the test compound was determined by means of cumulative addition.
The relaxation response of the test compounds was expressed as the percent inhibition of the contraction induced by KCl, and the IC₅₀ value, which is a concentration required for inhibiting the contraction induced by KCl to an extent of 50%, was calculated by the Probit method from the concentration-response curve.

Molecule `CC(C)(C)CN=C(NC#N)c1ccccn1` [(2), N-cyano-N'-(2,2-dimethylpropyl)-2-pyridinecarboximidamide] had an IC50 of 60 µM.
With `CC(N=C(NC#N)c1ccccn1)C(C)(C)C` (stereo not shown) [(3), N-cyano-N'-(1,2,2-trimethylpropyl)-2-pyridinecarboximidamide] the figure was 49 µM.
With `N#CNC(=Nc1ccccc1)c1ccccn1` [(4), N-cyano-N'-phenyl-2-pyridinecarboximidamide] the figure was 31 µM; with `COc1ccc(N=C(NC#N)c2ccccn2)cc1` [(5), N-cyano-N'-(4-methoxyphenyl)-2-pyridinecarboximidamide], 65 µM; with `Cc1ccc(CN=C(NC#N)c2ccccn2)cc1` [(6), N-cyano-N'-(4-methylbenzyl)-2-pyridinecarboximidamide], 51 µM.
`N#CNC(=NCc1ccc(Cl)cc1)c1ccccn1` [(7), N-cyano-N'-(4-chlorobenzyl)-2-pyridinecarboximidamide] returned an IC50 of 23 µM.
With `N#CNC(=NCc1ccc(C(F)(F)F)cc1)c1ccccn1` [(8), N-cyano-N'-[4-(trifluoromethyl)benzyl]-2-pyridinecarboximidamide] the figure was 57 µM; with `Cc1ccc(CCN=C(NC#N)c2ccccn2)cc1` [(9), N-cyano-N'-[2-(4-methylphenyl)ethyl]-2-pyridinecarboximidamide], 72 µM; with `N#CNC(=NCCc1ccc(Cl)cc1)c1ccccn1` [(10), N-cyano-N'-[2-(4-chlorophenyl)ethyl]-2-pyridinecarboximidamide], 40 µM.
In the case of `CC(N=C(NC#N)c1ccccn1)C(O)c1ccccc1` (stereo not shown) [(11), N-cyano-N'-(2-hydroxy-1-methyl-2-phenylethyl)-2-pyridinecarboximidamide] it was 12 µM; in that of `N#CNC(=NCc1cccs1)c1ccccn1` [(12), N-cyano-N'-(2-thienylmethyl)-2-pyridinecarboximidamide], 24 µM; in that of `N#CNC(=NCCCO[N+](=O)[O-])c1cccnc1` [(14), N-cyano-N'-(3-nitroxypropyl)-3-pyridinecarboximidamide], 20 µM.
In the case of `CC(C)(C)CCN=C(NC#N)c1cccnc1` [(15), N-cyano-N'-(3,3-dimethylbutyl)-3-pyridinecarboximidamide] it was 95 µM.
Regarding `Cc1ccc(N=C(NC#N)c2cccnc2)cc1` [(16), N-cyano-N'-(4-methylphenyl)-3-pyridinecarboximidamide], the IC50 was determined as 17 µM.
With `Cc1ccc(CN=C(NC#N)c2cccnc2)cc1` [(18), N-cyano-N'-(4-methylbenzyl)-3-pyridinecarboximidamide], the IC50 turned out to be 22 µM.
In the case of `COc1ccc(CN=C(NC#N)c2cccnc2)cc1` [(19), N-cyano-N'-(4-methoxybenzyl)-3-pyridinecarboximidamide] it was 37 µM.
In the case of `N#CNC(=NCc1ccc(C(F)(F)F)cc1)c1cccnc1` [(21), N-cyano-N'-[4-(trifluoromethyl)benzyl]-3-pyridinecarboximidamide], the IC50 came to 70 µM.
Take `N#CNC(=NCc1ccc(Cl)cc1)c1cccnc1` [(22), N-cyano-N'-(4-chlorobenzyl)-3-pyridinecarboximidamide]: the IC50 was determined as 22 µM.
In the case of `N#CNC(=NCc1ccc([N+](=O)[O-])cc1)c1cccnc1` [(23), N-cyano-N'-(4-nitrobenzyl)-3-pyridinecarboximidamide] it was 98 µM.
With `N#CNC(=NCc1ccc(Cl)c(Cl)c1)c1cccnc1` [(24), N-cyano-N'-(3,4-dichlorobenzyl)-3-pyridinecarboximidamide] the figure was 21 µM.
With `N#CNC(=NCc1cc(C(F)(F)F)cc(C(F)(F)F)c1)c1cccnc1` [(25), N-cyano-N'-[3,5-bis(trifluoromethyl)benzyl]-3-pyridinecarboximidamide] the figure was 24 µM; with `N#CNC(=NCc1cccc(OCc2ccccc2)c1)c1cccnc1` [(26), N-cyano-N'-(3-benzyloxybenzyl)-3-pyridinecarboximidamide], 23 µM; with `COc1ccccc1CCN=C(NC#N)c1cccnc1` [(28), N-cyano-N'-[2-(2-methoxyphenyl)ethyl]-3-pyridinecarboximidamide], 70 µM.
`N#CNC(=NCCc1ccc(Cl)cc1)c1cccnc1` [(30), N-cyano-N'-[2-(4-chlorophenyl)ethyl]-3-pyridinecarboximidamide] yielded an IC50 of 43 µM.
The molecule `N#CNC(=NCCc1ccc(NCc2ccccc2)cc1)c1cccnc1` [(31), N-cyano-N'-[2-(4-benzylaminophenyl)ethyl]-3-pyridinecarboximidamide] gave an IC50 of 16 µM.
In the case of `N#CNC(=NCC(O[N+](=O)[O-])c1ccc([N+](=O)[O-])cc1)c1cccnc1` (stereo not shown) [(32), N-cyano-N'-[2-(4-nitrophenyl)-2-nitroxyethyl]-3-pyridinecarboximidamide], inhibition was half-maximal at 78 µM (IC50).
On to `N#CNC(=NCCCc1ccccc1)c1cccnc1` [(33), N-cyano-N'-(3-phenylpropyl)-3-pyridinecarboximidamide], for which half-maximal inhibition (IC50) was put at 95 µM.
In the case of `N#CNC(=NC(c1ccccc1)c1ccccc1)c1cccnc1` [(34), N-cyano-N'-diphenylmethyl-3-pyridinecarboximidamide] it was 38 µM; in that of `N#CNC(=NC(Cc1ccccc1)c1ccccc1)c1cccnc1` (stereo not shown) [(35), N-cyano-N'-(1,2-diphenylethyl)-3-pyridinecarboximidamide], 18 µM; in that of `N#CNC(=NCC(c1ccccc1)c1ccccc1)c1cccnc1` [(36), N-cyano-N'-(2,2-diphenylethyl)-3-pyridinecarboximidamide], 16 µM.
In the case of `N#CNC(=NCCC(c1ccccc1)c1ccccc1)c1cccnc1` [(37), N-cyano-N'-(3,3-diphenylpropyl)-3-pyridinecarboximidamide] it was 28 µM; in that of `N#CNC(=NCCc1ccc(OCc2ccccc2)c(OCc2ccccc2)c1)c1cccnc1` [(39), N-cyano-N'-[2-(3,4-dibenzyloxyphenyl)ethyl]-3-pyridinecarboximidamide], 48 µM; in that of `COc1ccc(NC(=NC#N)c2cccnc2)c(OC)n1` [(40), N-cyano-N'-3-(2,6-dimethoxypyridine)-3-pyridinecarboximidamide], 40 µM.
In turn, `N#CNC(=NCCCO[N+](=O)[O-])c1ccncc1` [(42), N-cyano-N'-(3-nitroxypropyl)-4-pyridinecarboximidamide] showed an IC50 of 20 µM.
With `N#CNC(=Nc1ccccc1)c1ccncc1` [(43), N-cyano-N'-phenyl-4-pyridinecarboximidamide] the figure was 52 µM.
With `N#CNC(=NCc1ccc(Cl)c(Cl)c1)c1ccncc1` [(44), N-cyano-N'-(3,4-dichlorobenzyl)-4-pyridinecarboximidamide] the figure was 19 µM; with `CSc1ccc(CN=C(NC#N)c2ccncc2)cc1` [(45), N-cyano-N'-(4-methylthiobenzyl)-4-pyridinecarboximidamide], 49 µM.
In the case of `N#CNC(=NCc1cccc(OCc2ccccc2)c1)c1ccncc1` [(46), N-cyano-N'-(3-benzyloxybenzyl)-4-pyridinecarboximidamide] it was 30 µM; in that of `N#CNC(=NCCc1ccc(Cl)cc1)c1ccncc1` [(47), N-cyano-N'-[2-(4-chlorophenyl)ethyl]-4-pyridinecarboximidamide], 40 µM.
The molecule `COc1ccccc1CCN=C(NC#N)c1ccncc1` [(48), N-cyano-N'-[2-(2-methoxyphenyl)ethyl]-4-pyridinecarboximidamide] came in with an IC50 of 73 µM.
With `N#CNC(=NCCSc1ccccc1)c1ccncc1` [(49), N-cyano-N'-(2-phenylthioethyl)-4-pyridinecarboximidamide] the figure was 62 µM; with `N#CNC(=NCC(O[N+](=O)[O-])c1ccc([N+](=O)[O-])cc1)c1ccncc1` (stereo not shown) [(50), N-cyano-N'-[2-(4-nitrophenyl)-2-nitroxyethyl]-4-pyridinecarboximidamide], 14 µM; with `CC(N=C(NC#N)c1ccncc1)C(O[N+](=O)[O-])c1ccc([N+](=O)[O-])cc1` (stereo not shown) [(51), N-cyano-N'-[1-methyl-2-(4-nitrophenyl)-2-nitroxyethyl]-4-pyridinecarboximidamide], 13 µM.
In the case of `N#CN=C(NCCO[N+](=O)[O-])c1ccc(Cl)nc1` [(52), N-cyano-N'-(2-nitroxyethyl)-3-(6-chloropyridine)carboximidamide] it was 11 µM; in that of `N#CN=C(NCCc1ccccc1)c1ccc(Cl)nc1` [(53), N-cyano-N'-(2-phenylethyl)-3-(6-chloropyridine)carboximidamide], 77 µM.
`CN(C)c1ccc(CN=C(NC#N)c2cccnc2)cc1` [Compound (20), N-cyano-N'-(4-dimethylaminobenzyl)-3-pyridinecarboximidamide] yielded an IC50 of 78 µM.
In the case of `N#CNC(=NCC(OCc1ccccc1)c1ccccc1)c1cccnc1` (stereo not shown) [Compound (38), N-cyano-N'-(2-benzyloxy-2-phenylethyl)-3-pyridinecarboximidamide] it was 68 µM; in that of `N#CN=C(N)c1cccnc1` [N-cyano-3-pyridine-carboxyimidamide, reference compound], 40000 µM.
With `N#CN=C(N)c1ccncc1` [N-cyano-4-pyridine-carboxyimidamide, reference compound] the figure was 180 µM.

The IC50 is the concentration that inhibits the measured activity by half. Low readings indicate higher potency, high ones lower potency.
